“And” between values parts separate entries of the source, which are not always exact repeats. Equal values may be shown once.

The text below walks through data of article PMC6694155, “PTPσ inhibitors promote hematopoietic stem cell regeneration” (Nature Communications, 2019).

Type in all cases: cell-based, mouse
The test system of one assay is p250GAP in BM lin− cells. The assay can be described thus: p250GAP phospho-tyrosine sandwich ELISA. The procedure: Clear, pre-blocked Protein A-coated Microtiter wells (Fisher Scientific, #15132) were incubated with ARHGAP32 polyclonal antibody (Bioss, #bs-9296R, 1:500) in antibody dilution buffer (150 mM NaCl, 25 mM HEPES pH 7.2, 0.5% bovine serum albumin, 0.05% Tween 20) for 3 h at room temperature (RT). Subsequently, the plate was washed three times and phosphorylated p250GAP from BM lin^− cell lysate was added to each well. BM lin^− cells were collected in NP40 buffer (ThermoFisher Scientific; FNN0021) supplemented with 1× complete, Mini, EDTA-free Protease Inhibitor Cocktail (Sigma Aldrich; 4693159001) and 1× PhosSTOP (Sigma Aldrich; 4906845001). Following incubation for 2 h at 4 °C, the plate was completely emptied (without washing) and exposed to 50 μL of a fixation solution (0.5% formaldehyde in 300 mM NaCl, 20 mM sodium phosphate buffer, pH 7) for 10 min. The plate-bound, phosphorylated p250GAP was measured by a specific anti-phospho-tyrosine peroxidase-coupled antibody (Sigma Aldrich, #A5964-1VL, 1:500) in antibody dilution buffer. Incubation was for 1 h at RT. Peroxidase activity was measured by a Tecan Infinity plate reader using BM Chemiluminescence ELISA Substrate (Sigma Aldrich, #11582950001).
Background: In an ELISA, binding on a coated surface is turned into a signal by an enzyme label.

The subject of assay [1] is BM KSL cells. The assay can be described thus: Gene expression of pro- and anti-apoptotic genes in irradiated BM KSL cells (qPCR). Also noted: key to Figure 3g: gene expression, Bax / Figure 3g: gene expression, Bcl-2 / Figure 3g: gene expression, Bcl-xL / Figure 3g: gene expression, Bim / Figure 3g: gene expression, Mcl1: fold change, 2^-ΔΔCt vs media-treated non-irradiated KSL, Gapdh-normalized. The source says: For all studies, RNA was isolated using the Qiagen RNeasy micro kit (Qiagen). RNA was reverse transcribed using the High-Capacity cDNA Reverse Transcription Kit (ThermoFisher Scientific) and was then used for quantitative PCR with SYBR Select Master Mix (Life Technologies). Values were normalized to housekeeping gene Gapdh/GAPDH and given as ΔΔCt values normalized to media-treated, non-irradiated BM KSL cells (2(−ΔΔC(T)) method)[67].
On the technique in general: In qPCR the cycle at which signal appears reflects the starting amount.

Assay [2] relates to BM KSL cells. The assay can be described thus: Cell cycle analysis (Ki67/7AAD) of BM KSL cells. More on the design: G0 / G1 / G2SM: unit not given here. The procedure:
Eight- to ten-week-old female C57BL/6 mice were irradiated with 500 cGy TBI followed by subcutaneous injections of 5 mg/kg DJ001 or vehicle, or 5 mg/kg DJ001 plus 40 mg/kg EHT1864. Twenty four hours after irradiation, mice were killed to collect BM cells for Annexin V apoptosis analysis. BM cells were stained with APC-Cy7-conjugated anti-mouse Sca1 (BD Biosciences, #560654, 1:100), PE-conjugated anti-ckit (BD Biosciences, #553355, 1:100), and V450 lineage cocktail (BD Biosciences, #561301, 1:10) antibodies for 30 min at 4 °C. Cells were then resuspended in 1× Annexin V binding buffer and then stained with FITC-conjugated anti-Annexin V antibody (BD Biosciences, #556547,1:50) and 7AAD antibody (BD Biosciences, #559925, 1:40)[68]. For in vitro human BM cell apoptosis assays, isolated human BM CD34^+ cells were plated into 96-well plates and then irradiated with 300 cGy. Immediately after irradiation, cells were treated with 5 μg/mL DJ001 or vehicle for 24 h and then collected for Annexin V cell apoptosis analysis. For cell cycle analysis, BM KSL cells were irradiated at 300 cGy and then treated with 1 μg/mL DJ001 or vehicle for 36 h. Subsequently, cells were resuspended in 200 μL of PBS, fixed with 1 mL of ice-cold fixation solution (0.25% Saponin, 2.5% PFA, 2% fetal calf serum (FCS) in PBS), and incubated for 30 min on ice. Cells were washed in Saponin buffer (0.25% Saponin, 2% FCS in PBS) and resuspended in 200 μL of Saponin buffer containing 20 μL of FITC-conjugated anti-Ki67 antibody (BD Biosciences, #556026, 1:10) and 1 μL of RNase (Qiagen, #19101, 100 mg/mL). After 30 min of incubation, cells were washed in Saponin buffer and resuspended for flow analysis in 200 μL of Saponin buffer containing 5 μL 7AAD (BD Biosciences, #559925, 1:40).

Where [3] appears, read: BM KSL cells, 12 h post 300 cGy.
Where [4] appears, read: irradiated BM KSL cells, qPCR, replicates.
The mark [5] stands for this setting: 36 h following 300 cGy, 1 μg/mL DJ001.
The mark [6] stands for this setting: 36 h following 300 cGy, 1 µg/mL DJ001, 6 µg/mL EHT1864, 240 ng/mL SU9516.
[7] abbreviates: cell cycle phase, Supplementary Figure 7h.

Regarding `O=C(/C=C\Nc1cccc([N+](=O)[O-])c1)c1ccccc1` [DJ001, (Z)-3-((3-nitrophenyl)amino)-1-phenylprop-2-en-1-one], the “phosphorylation of p250GAP” value in the assay with p250GAP in BM lin− cells (1 µg/mL DJ001) is reported as “significantly increased phosphorylation of p250GAP”. Moreover, the “Figure 3a: p250GAP phosphorylation (phospho-tyrosine ELISA)” value in the assay on p250GAP in BM lin− cells (DJ001 vs media, individual replicates) is 62.785 and 39.77 and 58.721 and 55.943 and 45.893 and 49.264 and 56.331. Moreover, in the assay with BM KSL cells [1] (setting [3]), the “expression of Bim, Bax, Puma, Bcl2” value is “no effect”; the “expression of Mcl-1 and Bcl2l1” value is on record as “increased the expression”. In the assay on BM KSL cells [1] (setting [4]), the “Figure 3g: gene expression, Bax” value was 2.95 and 3.78 and 1.75; the “Figure 3g: gene expression, Bcl-2” value is 1.73 and 1.94 and 1.28 and 1.59 and 1.76 and 1.06; the “Figure 3g: gene expression, Bcl-xL” value is 4.94 and 3.23 and 6.87 and 4.82 and 3.79 and 5.97; the “Figure 3g: gene expression, Bim” value was 2.95 and 3.78 and 2.75. In the assay on BM KSL cells [1] (setting [4]), the “Figure 3g: gene expression, Mcl1” value was 1.95 and 1.78 and 2.55 and 0.81 and 1.62 and 1.96; the “Figure 3g: gene expression, Puma” value is 2.95 and 1.78 and 1.75. Besides, the “percentage of KSL cells in G2/S/M phase vs control” value with BM KSL cells [2] (36 h following 300 cGy) is recorded as “significantly increased the percentage of KSL cells in G2/S/M phase”. Further, in the assay on BM KSL cells [2] (setting [5]), the “percentages of KSL cells in G0, per replicate (Figure 4a)” value is 10.898% and 7.091% and 6.413% and 9.19% and 8.538% and 7.981% and 5.757%; the “percentages of KSL cells in G1, per replicate (Figure 4a)” value is 51.766% and 62.582% and 57.686% and 51.047% and 60.936% and 51.069% and 57.668%; the “percentages of KSL cells in G2SM, per replicate (Figure 4a)” value was 36.781% and 29.964% and 35.471% and 38.731% and 30% and 39.75% and 36.236%. For the same molecule, in the assay with BM KSL cells [2] (setting [6]), the “percentages of BM cells in G0, per replicate (Figure 4d bottom left panel)” value was 12% and 10% and 8% and 4% and 11%; the “percentages of BM cells in G1, per replicate (Figure 4d bottom center panel)” value is 52% and 54% and 51% and 48%; the “percentages of BM cells in G2/S/M, per replicate (Figure 4d bottom right panel)” value is 35% and 40% and 41% and 39%. In addition, in the assay on BM KSL cells [2] (setting [7]), the G0 is 17.593 and 13.329 and 15.794 and 18.75 and 23.139 and 16.263 and 18.5; the G1 was 51.409 and 55.557 and 49.648 and 46.611 and 42.434 and 51.122 and 52.817; the G2SM is 27.738 and 29.087 and 32.369 and 30.422 and 28.183 and 29.707 and 25.745.
